Assay results from ChEMBL document CHEMBL1201862, “PubChem BioAssay data set” (2004).
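Results reflect a 48-hour exposure of cells in 96-well plates to compound at five concentrations. The concentration for 50% growth inhibition is given as GI50.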 Calls of active or inactive are those of the source. No stated cut-off is given here; in the data, active = GI50 up to about 1.1 µM and inactive = higher.

Legend:
Experiment in all cases: NCI-60 cell line screen, 48 h
SF-268 = test system: SF-268
RPMI-8226 = test system: RPMI-8226
LOX IMVI = test system: LOX IMVI
UACC-62 = test system: UACC-62
CAKI-1 = test system: CAKI-1
DMS-114 = test system: DMS-114
SNB-75 = test system: SNB-75
U-251 = test system: U-251
IGROV-1 = test system: IGROV-1
ACHN = test system: ACHN
SK-MEL-5 = test system: SK-MEL-5
HT-29 = test system: HT-29
KM12 = test system: KM12
KM-20L2 = test system: KM-20L2
SNB-78 = test system: SNB-78
A549 = test system: A549
RXF 393 = test system: RXF 393
HCT-15 = test system: HCT-15
NCI-H460 = test system: NCI-H460
COLO 205 = test system: COLO 205
A498 = test system: A498
HL-60 = test system: HL-60
CCRF-CEM = test system: CCRF-CEM
MOLT-4 = test system: MOLT-4
UO-31 = test system: UO-31
OVCAR-3 = test system: OVCAR-3
DLD-1 = test system: DLD-1
SK-MEL-28 = test system: SK-MEL-28
HOP-92 = test system: HOP-92
HCT-116 = test system: HCT-116
NCI-H226 = test system: NCI-H226
SF-295 = test system: SF-295
SNB-19 = test system: SNB-19
Malme-3M = test system: Malme-3M
SK-OV-3 = test system: SK-OV-3
SW-620 = test system: SW-620
786-0 = test system: 786-0
LXFL 529 = test system: LXFL 529
K562 = test system: K562
OVCAR-5 = test system: OVCAR-5
EKVX = test system: EKVX
HCC 2998 = test system: HCC 2998
TK-10 = test system: TK-10
HOP-18 = test system: HOP-18
NCI-H522 = test system: NCI-H522
SN12C = test system: SN12C
UACC-257 = test system: UACC-257
M14 = test system: M14
DMS-273 = test system: DMS-273
NCI-H23 = test system: NCI-H23
OVCAR-4 = test system: OVCAR-4
SK-MEL-2 = test system: SK-MEL-2
OVCAR-8 = test system: OVCAR-8
XF498 = test system: XF498
HOP-62 = test system: HOP-62
SF-539 = test system: SF-539
M19-MEL = test system: M19-MEL

CC(=O)Nc1ccc(C2C(C(=O)Nc3ccccc3)=C(C)NC(C)=C2C(=O)Nc2ccccc2)cc1 was tested, and the GI50 (SF-268) was > 100 µM (inactive), the GI50 (RPMI-8226) was > 100 µM (inactive) and the GI50 (LOX IMVI) was > 79.6 µM (inactive). The GI50 (UACC-62) was > 80.5 µM (inactive), the GI50 (CAKI-1) was > 100 µM (inactive) and the GI50 (DMS-114) was 35.7 µM (inactive). The GI50 (SNB-75) was > 100 µM (inactive), the GI50 (U-251) was > 100 µM (inactive) and the GI50 (IGROV-1) was > 100 µM (inactive). The GI50 (ACHN) was > 100 µM (inactive), the GI50 (SK-MEL-5) was > 100 µM (inactive) and the GI50 (HT-29) was > 100 µM (inactive). For the same molecule, the GI50 (KM12) was > 100 µM (inactive), the GI50 (KM-20L2) was > 100 µM (inactive) and the GI50 (SNB-78) was > 100 µM (inactive). The GI50 (A549) was > 100 µM (inactive), the GI50 (RXF 393) was > 100 µM (inactive) and the GI50 (HCT-15) was over 64.1 µM. For the same molecule, the GI50 (NCI-H460) was > 100 µM (inactive), the GI50 (COLO 205) was > 100 µM (inactive) and the GI50 (A498) was > 100 µM (inactive). For the same molecule, the GI50 (HL-60) was 39.8 µM (inactive), the GI50 (CCRF-CEM) was 35.2 µM (inactive) and the GI50 (MOLT-4) was > 100 µM (inactive). For the same molecule, the GI50 (UO-31) was > 100 µM (inactive), the GI50 (OVCAR-3) was > 100 µM (inactive) and the GI50 (DLD-1) was 97.5 µM (inactive). The GI50 (SK-MEL-28) was > 100 µM (inactive), the GI50 (HOP-92) was > 100 µM (inactive) and the GI50 (HCT-116) was > 91 µM (inactive). The GI50 (NCI-H226) was > 100 µM (inactive), the GI50 (SF-295) was > 100 µM (inactive) and the GI50 (SNB-19) was > 100 µM (inactive). For the same molecule, the GI50 (Malme-3M) was > 100 µM (inactive), the GI50 (SK-OV-3) was > 100 µM (inactive) and the GI50 (SW-620) was 98.4 µM (inactive). The GI50 (786-0) was > 100 µM (inactive), the GI50 (LXFL 529) was > 64.9 µM (inactive) and the GI50 (K562) was > 100 µM (inactive). For the same molecule, the GI50 (OVCAR-5) was > 100 µM (inactive), the GI50 (EKVX) was > 100 µM (inactive) and the GI50 (HCC 2998) was > 100 µM (inactive). The GI50 (TK-10) was > 100 µM (inactive), the GI50 (HOP-18) was > 100 µM (inactive) and the GI50 (NCI-H522) was 64 µM (inactive). The GI50 (SN12C) was > 100 µM (inactive), the GI50 (UACC-257) was > 100 µM (inactive) and the GI50 (M14) was > 100 µM (inactive). For the same molecule, the GI50 (DMS-273) was > 100 µM (inactive), the GI50 (NCI-H23) was > 100 µM (inactive) and the GI50 (OVCAR-4) was > 100 µM (inactive). For the same molecule, the GI50 (SK-MEL-2) was > 100 µM (inactive), the GI50 (OVCAR-8) was > 100 µM (inactive) and the GI50 (XF498) was > 100 µM (inactive). For the same molecule, the GI50 (HOP-62) was > 100 µM (inactive), the GI50 (SF-539) was > 100 µM (inactive) and the GI50 (M19-MEL) was > 100 µM (inactive).

In the case of Nc1ccn(CC(CO)CC(c2ccccc2)P(=O)(O)O)c(=O)n1 (stereo unspecified), the GI50 (SF-268) is reported as > 100 µM (inactive), the GI50 (RPMI-8226) is reported as > 100 µM (inactive) and the GI50 (LOX IMVI) is reported as > 100 µM (inactive). For the same molecule, the GI50 (UACC-62) was > 100 µM (inactive), the GI50 (CAKI-1) was > 100 µM (inactive) and the GI50 (DMS-114) was > 100 µM (inactive). The GI50 (IGROV-1) was > 100 µM (inactive), the GI50 (ACHN) was > 100 µM (inactive) and the GI50 (SK-MEL-5) was > 100 µM (inactive). The GI50 (HT-29) was > 100 µM (inactive), the GI50 (KM12) was > 100 µM (inactive) and the GI50 (KM-20L2) was > 100 µM (inactive). The GI50 (SNB-78) was > 100 µM (inactive), the GI50 (A549) was > 100 µM (inactive) and the GI50 (RXF 393) was > 100 µM (inactive). For the same molecule, the GI50 (HCT-15) was over 100 µM, the GI50 (NCI-H460) was > 100 µM (inactive) and the GI50 (COLO 205) was > 100 µM (inactive). For the same molecule, the GI50 (A498) was > 100 µM (inactive), the GI50 (HL-60) was > 100 µM (inactive) and the GI50 (CCRF-CEM) was > 100 µM (inactive). For the same molecule, the GI50 (MOLT-4) was > 100 µM (inactive), the GI50 (UO-31) was > 100 µM (inactive) and the GI50 (OVCAR-3) was > 100 µM (inactive). The GI50 (DLD-1) was > 100 µM (inactive), the GI50 (SK-MEL-28) was > 100 µM (inactive) and the GI50 (HOP-92) was > 100 µM (inactive). For the same molecule, the GI50 (HCT-116) was > 100 µM (inactive), the GI50 (NCI-H226) was > 100 µM (inactive) and the GI50 (SF-295) was > 100 µM (inactive). For the same molecule, the GI50 (SNB-19) was > 100 µM (inactive), the GI50 (Malme-3M) was > 100 µM (inactive) and the GI50 (SK-OV-3) was > 100 µM (inactive). For the same molecule, the GI50 (SW-620) was > 100 µM (inactive), the GI50 (786-0) was > 100 µM (inactive) and the GI50 (LXFL 529) was > 100 µM (inactive). The GI50 (K562) was > 100 µM (inactive), the GI50 (OVCAR-5) was > 100 µM (inactive) and the GI50 (EKVX) was > 100 µM (inactive). For the same molecule, the GI50 (HCC 2998) was > 100 µM (inactive), the GI50 (TK-10) was > 100 µM (inactive) and the GI50 (HOP-18) was < 0.01 µM (active). For the same molecule, the GI50 (NCI-H522) was > 100 µM (inactive), the GI50 (SN12C) was > 100 µM (inactive) and the GI50 (UACC-257) was > 100 µM (inactive). For the same molecule, the GI50 (M14) was > 100 µM (inactive), the GI50 (DMS-273) was > 100 µM (inactive) and the GI50 (NCI-H23) was > 100 µM (inactive). The GI50 (SK-MEL-2) was > 100 µM (inactive), the GI50 (OVCAR-8) was > 100 µM (inactive) and the GI50 (XF498) was > 100 µM (inactive). The GI50 (HOP-62) was > 100 µM (inactive), the GI50 (SF-539) was > 100 µM (inactive) and the GI50 (M19-MEL) was > 100 µM (inactive).
